Patent US20230217926A1, “SELECTIVE HERBICIDES BASED ON SUBSTITUTED ISOXAZOLIN CARBOXAMIDES AND ISOXADIFEN-ETHYL” (BAYER AKTIENGESELLSCHAFT, priority 2020, published 2023)

Columns and labels:
HORVS Montoya = assay: Safener seed treatment, pre-emergence herbicide, crop damage; assay type: in vivo, spring barley; design: key to Reduction [Difference]: % crop damage without safener minus % damage with safener; details: for Reduction [%] / Reduction [Difference]: isoxadifen-ethyl 0.25 g a.i./kg seed; for HER effect + SAF: isoxadifen-ethyl seed treatment 0.25 g a.i./kg seed; for HER effect: no safener
Procedure: (§1) For the safener seed treatment, sufficient seeds of the respective crops (spring wheat, TRZAS; spring barley, HORVS; maize, ZEAMA) were weighed into screw top glass bottles approximately twice the volume of the seeds.
(§2) The specified safeners, formulated as wettable powder (WP) were weighed out so that the specified rates (g a.i./kg seed) would be obtained, dissolved in water (1 ml water per 10 g of seeds), and added to the seeds to produce a slurry.
(§3) The bottles were capped and then placed in an overhead shaker (set at medium speed for ca. 60 minutes) so that the seeds were evenly coated with the slurry. The bottles were uncapped and the seeds were either placed on paper and dried for an interval of 3-4 hours prior to sowing, or directly sown. Seeds were placed in sandy loam soil in pots of a diameter of 7-8 cm, and covered with soil.
(§4) Pre-emergence application of the specified herbicides was done subsequently, on two sets of plants: a) seed treatment with safener, as described above
(§5) The herbicides were formulated as WP and was sprayed onto the soil surface as an aqueous suspension at an equivalent water application rate of 300 l/ha.
(§6) After application, the test plants were kept in the greenhouse under good growth conditions. At intervals up to 4 weeks after application (=28 days after treatment; DAT), % crop damage observed on the treated plants was scored visually in comparison to control plants that had not received any safener or herbicide treatment.
(§7) Values in the table below are mean values of at least 2 replicates.
Reduction[Difference]=herbicide damage without safener−herbicide damage with safener Reduction[%]=(Reduction[Difference]*100)/herbicide damage without safener b) Plant Species, Variety: HORVS Montoya, Safener (SAF): Isoxadifen-Ethyl

TRZAS Triso = assay: as above; assay type: in vivo, spring wheat; design: key to Reduction [Difference]: % crop damage without safener minus % damage with safener; details: HER 15 g a.i./ha pre-emergence; for Reduction [%] / Reduction [Difference]: isoxadifen-ethyl 0.25 g a.i./kg seed; for HER effect + SAF: isoxadifen-ethyl seed treatment 0.25 g a.i./kg seed; for HER effect: no safener
Procedure: as §1, §2, §3, §4, §5, §6, §7
Reduction[Difference]=herbicide damage without safener−herbicide damage with safener Reduction[%]=(Reduction[Difference]*100)/herbicide damage without safener a) Plant Species, Variety: TRZAS Triso, Safener (SAF): Isoxadifen-Ethyl

ZEAMA Sileno [1] = assay: as above; assay type: in vivo, maize; design: key to Reduction [Difference]: % crop damage without safener minus % damage with safener; details: for Reduction [%] / Reduction [Difference]: isoxadifen-ethyl 0.25 g a.i./kg seed; for HER effect + SAF: isoxadifen-ethyl seed treatment 0.25 g a.i./kg seed; for HER effect: no safener
Procedure: as §1, §2, §3, §4, §5, §6, §7
Reduction[Difference]=herbicide damage without safener−herbicide damage with safener Reduction[%]=(Reduction[Difference]*100)/herbicide damage without safener […]
c) Plant Species, Variety: ZEAMA Sileno, Safener (SAF): Isoxadifen-Ethyl

ZEAMA Sileno [2] = assay: Tank-mix post-emergence crop damage, greenhouse, visual assessment; assay type: in vivo, maize; design: key to Reduction [Difference]: % points: herbicide damage without safener − damage with safener; details: for HER effect + SAF / Reduction [%] / Reduction [Difference]: Final; for HER effect: no safener, Final assessment
Procedure: Seeds of crops (spring wheat, TRZAS; spring barley, HORVS; maize, ZEAMA) were placed in sandy loam soil in peat pots, covered with soil and cultivated in a greenhouse under good growth conditions. Two to three weeks after sowing, the test plants were treated at the 1 to 3-leaf stage. The herbicide/safener active compound combinations according to the invention, formulated as wettable powders or emulsion concentrates, and, in parallel tests, the correspondingly formulated individual active compounds were sprayed onto the green parts of the plants in various dosages using an amount of water of 300 l/ha (converted).
The pots were returned under good growing conditions in a glasshouse and a visual assessment of herbicidal effects was made at intervals from 1 to 3 weeks after herbicide application (DAT=days after treatment). Assessment was on a percentage basis in comparison with untreated control plants (0%=no injury, 100%=complete kill).
Reduction[Difference]=herbicide damage without safener−herbicide damage with safener Reduction[%]=(Reduction[Difference]*100)/herbicide damage without safener
a) Plant Species, Variety: ZEAMA Sileno, Safener (SAF): Isoxadifen-Ethyl

[3] = HER 15 g a.i./ha pre-emergence, 11 DAT (Interim)
[4] = HER 15 g a.i./ha pre-emergence, 21 DAT (Final)
[5] = HER 80 g a.i./ha pre-emergence, 14 DAT
[6] = HER 80 g a.i./ha pre-emergence, 26 DAT
[7] = HER 8 g a.i./ha + isoxadifen-ethyl 50 g a.i./ha
[8] = HER 8 g a.i./ha, isoxadifen-ethyl 50 g a.i./ha
[9] = HER 32 g a.i./ha + isoxadifen-ethyl 100 g a.i./ha
[10] = HER 32 g a.i./ha, isoxadifen-ethyl 100 g a.i./ha
[11] = HER 5 g a.i./ha pre-emergence, 21 DAT (Final)
[12] = HER 40 g a.i./ha pre-emergence, 14 DAT

| Compound | Reduction [%] (HORVS Montoya; [3]) | Reduction [Difference] (HORVS Montoya; [3]) | Reduction [%] (HORVS Montoya; [4]) | Reduction [Difference] (HORVS Montoya; [4]) | HER effect + SAF (HORVS Montoya; [3]) | HER effect + SAF (HORVS Montoya; [4]) | HER effect (HORVS Montoya; [3]) | HER effect (HORVS Montoya; [4]) | Reduction [%] (TRZAS Triso; 11 DAT (Interim)) | Reduction [Difference] (TRZAS Triso; 11 DAT (Interim)) | HER effect + SAF (TRZAS Triso; 11 DAT (Interim)) | HER effect (TRZAS Triso; 11 DAT (Interim)) | Reduction [%] (TRZAS Triso; 21 DAT (Final)) | Reduction [Difference] (TRZAS Triso; 21 DAT (Final)) | HER effect + SAF (TRZAS Triso; 21 DAT (Final)) | HER effect (TRZAS Triso; 21 DAT (Final)) | HER effect + SAF (ZEAMA Sileno [2]; [7]) | Reduction [%] (ZEAMA Sileno [2]; [8]) | Reduction [Difference] (ZEAMA Sileno [2]; [8]) | HER effect (ZEAMA Sileno [2]; HER 8 g a.i./ha) | further results |
| --- | --- | --- | --- | --- | --- | --- | --- | --- | --- | --- | --- | --- | --- | --- | --- | --- | --- | --- | --- | --- | --- |
| CSCCOC(=O)C1C=CC(NC(=O)C2(C(F)(F)F)CC(c3cc(F)cc(F)c3)=NO2)C1 (stereo not shown) [Example 1.7] | 50% | 25 | 83% | 25 | 25% | 5% | 50% | 30% | 56% | 25 | 20% | 45% | – | – | – | – | – | – | – | – | – |
| C=CC1(C(=O)NC2C=C(C(=O)OCC#N)OC2)CC(c2cc(F)cc(F)c2)=NO1 (stereo not shown) [Example 1.91] | – | – | – | – | – | – | – | – | – | – | – | – | 75% | 30 | 10% | 40% | – | – | – | – | – |
| COCCOC(=O)C1C=CC(NC(=O)C2(C)CC(c3cc(Cl)cc(C#N)c3)=NO2)C1 (stereo not shown) [Example 1.5] | – | – | – | – | – | – | – | – | 80% | 20 | 5% | 25% | – | – | – | – | 18% | 79% | 67 | 85% | Reduction [%] (ZEAMA Sileno [1]; [5]): 50%; Reduction [Difference] (ZEAMA Sileno [1]; [5]): 30; Reduction [%] (ZEAMA Sileno [1]; [6]): 56%; Reduction [Difference] (ZEAMA Sileno [1]; [6]): 25; HER effect + SAF (ZEAMA Sileno [1]; [5]): 30%; HER effect + SAF (ZEAMA Sileno [1]; [6]): 20%; HER effect (ZEAMA Sileno [1]; [5]): 60%; HER effect (ZEAMA Sileno [1]; [6]): 45%; HER effect + SAF (ZEAMA Sileno [2]; [9]): 47%; Reduction [%] (ZEAMA Sileno [2]; [10]): 51%; Reduction [Difference] (ZEAMA Sileno [2]; [10]): 49; HER effect (ZEAMA Sileno [2]; HER 32 g a.i./ha): 96% |
| CC1(C(=O)NC2C=CC(C(=O)O)C2)CC(c2cc(F)cc(F)c2)=NO1 (stereo not shown) [Example 1.36] | – | – | 43% | 30 | – | 40% | – | 70% | 29% | 20 | 50% | 70% | 64% | 45 | 25% | 70% | – | – | – | – | Reduction [%] (HORVS Montoya; [11]): 44%; Reduction [Difference] (HORVS Montoya; [11]): 20; HER effect + SAF (HORVS Montoya; [11]): 25%; HER effect (HORVS Montoya; [11]): 45% |
| COC(=O)C1C=CC(NC(=O)C2(C(F)(F)F)CC(c3cccc(F)c3)=NO2)C1 (stereo not shown) [Example 1.18] | 50% | 20 | 88% | 35 | 20% | 5% | 40% | 40% | 67% | 30 | 15% | 45% | – | – | – | – | 25% | 73% | 69 | 94% | Reduction [%] (ZEAMA Sileno [1]; [12]): 63%; Reduction [Difference] (ZEAMA Sileno [1]; [12]): 25; HER effect + SAF (ZEAMA Sileno [1]; [12]): 15%; HER effect (ZEAMA Sileno [1]; [12]): 40%; HER effect + SAF (ZEAMA Sileno [2]; [9]): 20%; Reduction [%] (ZEAMA Sileno [2]; [10]): 79%; Reduction [Difference] (ZEAMA Sileno [2]; [10]): 77; HER effect (ZEAMA Sileno [2]; HER 32 g a.i./ha): 97% |
